Assay results as given in US20030207819A1, “Compositions and methods for treating inflammatory connective tissue diseases” (priority 2002, published 2003).
Entries after “also recorded” stand apart in the source; their conditions may differ.

Tested on: patient with chondrocalcinosis leading to pseudorheumatoid pseudogout syndrome
Experiment: Example 4: clarithromycin re-challenge of Example 3 patient, symptoms and laboratory assessments
Assay type: in vivo, human
Experimental: Subsequent to the observations made in Example 3, the patient was re-challenged with clarithromycin, and re-evaluated as to symptomatic efficiency. In parallel with clinical observations, laboratory assessments including erythrocyte sedimentation rate, C-reactive 1 5 protein, and serum interleukins 1 and 6 were measured. The laboratory results are illustrated in Table 2.
On Jun. 15, 2002 the patient from Example 3 underwent a right pneumonectomy for treatment of recurrent lung cancer. During that hospitalization, clarithromycin was discontinued.
The patient underwent formal re-challenge with clarithromycin on Aug. 19, 2002 (Table 2). At that time their medications included ibuprofen at 400 mg/day, acetaminophen at 500 mg/as needed, prednisone at 5 mg/daily, CELEXA™ (Forest Pharmaceuticals, Inc.) at […], REMURON® (Organon Inc.) at 7.5 mg/h.s., DURICEF® (Bristol) at 500 mg b.i.d., TIMOPTIC® eye drops (Merck & Co.), and multi-vitamins. […] Clarithromycin at 500 mg b.i.d. was restarted on Aug. 20, 2002. When seen on Aug. […] 19, 2002. […] 28, 2002. On Sep. […] Ibuprofen was decreased to […] on Sep. 5, 2002. On Sep. […] On Sep.

[1] = Aug. 27, 2002, on clarithromycin
[2] = Oct. 8, 2002, off clarithromycin
[3] = Sep. 4, 2002, on clarithromycin
[4] = Sep. 9, 2002, on clarithromycin
[5] = Sep. 23, 2002, off clarithromycin

CC[C@H]1OC(=O)[C@H](C)[C@@H](O[C@H]2C[C@@](C)(OC)[C@@H](O)[C@H](C)O2)[C@H](C)[C@@H](O[C@@H]2O[C@H](C)C[C@H](N(C)C)[C@H]2O)[C@](C)(OC)C[C@@H](C)C(=O)[C@H](C)[C@@H](O)[C@]1(C)O [clarithromycin, 6-O-methylerythromycin]
CPR [1]: 0.74 mg/dL
ESR [1]: 18 mm/hr
IL-6 [1]: 6.8 pg/mL
Symptoms (Aug. 27, 2002, on clarithromycin 500 mg BID since Aug. 20, 2002, compared to baseline Aug. 19, 2002): had not observed improvement; also recorded: No change
CPR [2]: 0.77 mg/dL
ESR [2]: 10 mm/hr
IL-6 [2]: 1.8 pg/mL
Symptoms (Oct. 8, 2002, off clarithromycin, prednisone 5 mg QD): continued active
CPR [3]: 0.78 mg/dL
ESR [3]: 10 mm/hr
IL-6 [3]: 2.5 pg/mL
Symptoms (Sep. 4, 2002, on clarithromycin, ibuprofen increased to 800 mg/day on Aug. 28, 2002): 40% better
CPR [4]: 1.06 mg/dL
ESR [4]: 11 mm/hr
IL-6 [4]: 4.5 pg/mL
Symptoms (Sep. 9, 2002, on clarithromycin, discontinued at this visit, ibuprofen 600 mg/day): No change
Symptoms (Sep. 16, 2002, off clarithromycin, ibuprofen 400 mg/day): Worse
IL-6 (Sep. 16, 2002, one week following clarithromycin discontinuation, baseline 2.2): 33.1 pg/mL
ESR [5]: 37 mm/hr
IL-6 [5]: 6.4 pg/mL
Symptoms [5]: continued worsening; also recorded: Worse
CPR (Sep. 23, 2002, off clarithromycin, baseline 0.85): 3.51 mg/dL
joints (clarithromycin begun again as antimicrobial therapy after pneumonectomy): once again improved
arthritis symptoms (five to six days following discontinuation of clarithromycin, hospitalization June 2002): significantly worse
ESR (off clarithromycin, increase from 11 mm at baseline, date not given in the text): 37 mm
change in IL-1 (over the re-challenge Aug. 19 to Oct. 8, 2002): No significant change
